Data as given in patent US20140328940A1, “MODULATION OF AXON DEGENERATION” (Genentech, Inc., priority 2009, published 2014).
“Also recorded” adds a separate entry of the source.

Assays:
ErbB kinase [1] = conditions: read-out: Cellular IC50; heregulin induced tyrosine phosphorylation, MDA-MB-453 cells; published source; cited from earlier work
[2] = test system: cerebellar granule neurons (CGNs); assay: serum deprivation/KCl reduction degeneration of cerebellar granule neurons; type: cell-based, mouse; conditions: 5 mM KCl, 24 hours
[3] = test system: DRG neurons (axon vs. cell body compartment); assay: Campenot chamber local axon degeneration (anti-NGF in axon compartment); type: cell-based, mouse; conditions: for formation of varicosities in locally NGF-deprived axons: 30 μM SB415, 15 μM Act D in cell body compartment, 10 μM AG555, 30 μM SB239 in axon compartment
Description: Teflon dividers (Tyler Research) were cleaned by washing in water and wiping them clean of any residual grease. Dividers were then soaked in Nochromix (Godax Laboratories)/sulfuric acid overnight, rinsed five times in distilled and autoclaved water (SQ water), boiled for 30 minutes, and then air-dried before use
Mouse laminin (5 μg/ml in sterile filtered water; Invitrogen) was added to PDL coated 35 mm dishes (BD Biosciences) and they were incubated for 1 hour at 37° C., followed by two rinses in SQ water. The dishes were vacuum-dried and then air-dried in a laminar flow hood for 15 minutes. Prepared dishes were then scored with a pin rake (Tyler Research). […] High vacuum grease (VWR) was added to each Teflon divider under a dissection scope. The laminin coated PDL dishes were inverted and dropped onto the Teflon divider, with additional pressure added by use of a toothpick in the non-track-containing regions. Dishes were incubated for 1 hour at 37° C. Five hundred microliters of NBM+MC (50 ng/ml NGF) solution was added to each of the side compartments, and a grease barrier was added in front of the center cell slot.
Free E13.5 spinal cords were dissected from mouse embryos and placed into NBM+MC (25 ng/ml NGF) solution. DRGs were detached from the spinal cord with a tungsten needle. An NBM+MC-lubricated P200 pipette was used to move DRGs into a 1.5 ml tube. DRGs were pelleted with a tabletop centrifuge for 30 seconds. The supernate was discarded and 0.05% Trypsin/EDTA (cold) was added. The pellet was resolubilized with a pipette and incubated at 37° C. for 15 minutes with constant agitation (650 RPM). The sample was again centrifuged and the supernate discarded. The pellet was resuspended in warm NBM+MC (50 ng/ml NGF) solution and triturated with a flamed glass pipette 20 times, followed by trituration with a fire-bored glass pipette another 20 times. The samples were again centrifuged and the resulting pellets were resuspended in 0.5 ml NBM+MC (50 ng/ml NGF) solution. The cells were diluted to a final concentration of 2.5×10^6 cells/ml. The cell suspensions were loaded into a 1 ml syringe with a 22 gauge needle. The center slot of the Campenot divider was filled using the syringe (to a volume of at least 50 μl). The Campenot chamber was incubated overnight at 37° C. 2.5 ml NGF+MC (50 ng/ml NGF) solution was added to the center compartment and the grease gate was removed. The outer medium (cell body compartment) was replaced after three days with 2.5 ml NBM+MC medium (with 25 ng/ml NGF). After five days in culture, one distal compartment was washed three times with warmed NBM+MC (no NGF) solution. After the third wash, 500 μl NBM+MC (no NGF) solution was added to the axon compartment in combination with either 0.5% DMSO or an inhibitor. The cell body compartment was replaced with 2.5 ml NBM+MC medium (with 25 ng/ml NGF) containing either 0.5% DMSO or inhibitor.
After 28 hours of anti-NGF antibody treatment, 8% PFA/30% sucrose solution (see above) was added directly to the culture medium at a 1:1 dilution and incubated for 30 minutes. The Teflon divider was removed after the first 15 minutes of addition. The system was washed once with 2.5 ml PBS prior to immunostaining. Neurons were blocked in 5% BSA/0.2% triton in PBS for 30 minutes. The primary antibody Tuj1 (Covance) was added to a final dilution of 1:1000 in PBS containing 2% BSA and incubated overnight at 4° C. The dish was washed once with PBS. […] The dish was washed twice with PBS, and a 22×22 mm coverslip (VWR) was added with 350 μl of fluoromount G (Electron Microscopy Sciences). The neurons were visualized by use of a fluorescence microscope.
As described above, E13.5 DRGs were isolated and grown for 5 days in a Campenot chamber.

ErbB kinase [4] = biological target: ErbB kinase (Homo sapiens, UniProt P04626); conditions: protein tyrosine phosphorylation, 3T3-Her2 cells; published source; read-out: Cellular IC50; cited from earlier work
Sequence of ErbB kinase (Homo sapiens, UniProt P04626) (P04626 23-1255): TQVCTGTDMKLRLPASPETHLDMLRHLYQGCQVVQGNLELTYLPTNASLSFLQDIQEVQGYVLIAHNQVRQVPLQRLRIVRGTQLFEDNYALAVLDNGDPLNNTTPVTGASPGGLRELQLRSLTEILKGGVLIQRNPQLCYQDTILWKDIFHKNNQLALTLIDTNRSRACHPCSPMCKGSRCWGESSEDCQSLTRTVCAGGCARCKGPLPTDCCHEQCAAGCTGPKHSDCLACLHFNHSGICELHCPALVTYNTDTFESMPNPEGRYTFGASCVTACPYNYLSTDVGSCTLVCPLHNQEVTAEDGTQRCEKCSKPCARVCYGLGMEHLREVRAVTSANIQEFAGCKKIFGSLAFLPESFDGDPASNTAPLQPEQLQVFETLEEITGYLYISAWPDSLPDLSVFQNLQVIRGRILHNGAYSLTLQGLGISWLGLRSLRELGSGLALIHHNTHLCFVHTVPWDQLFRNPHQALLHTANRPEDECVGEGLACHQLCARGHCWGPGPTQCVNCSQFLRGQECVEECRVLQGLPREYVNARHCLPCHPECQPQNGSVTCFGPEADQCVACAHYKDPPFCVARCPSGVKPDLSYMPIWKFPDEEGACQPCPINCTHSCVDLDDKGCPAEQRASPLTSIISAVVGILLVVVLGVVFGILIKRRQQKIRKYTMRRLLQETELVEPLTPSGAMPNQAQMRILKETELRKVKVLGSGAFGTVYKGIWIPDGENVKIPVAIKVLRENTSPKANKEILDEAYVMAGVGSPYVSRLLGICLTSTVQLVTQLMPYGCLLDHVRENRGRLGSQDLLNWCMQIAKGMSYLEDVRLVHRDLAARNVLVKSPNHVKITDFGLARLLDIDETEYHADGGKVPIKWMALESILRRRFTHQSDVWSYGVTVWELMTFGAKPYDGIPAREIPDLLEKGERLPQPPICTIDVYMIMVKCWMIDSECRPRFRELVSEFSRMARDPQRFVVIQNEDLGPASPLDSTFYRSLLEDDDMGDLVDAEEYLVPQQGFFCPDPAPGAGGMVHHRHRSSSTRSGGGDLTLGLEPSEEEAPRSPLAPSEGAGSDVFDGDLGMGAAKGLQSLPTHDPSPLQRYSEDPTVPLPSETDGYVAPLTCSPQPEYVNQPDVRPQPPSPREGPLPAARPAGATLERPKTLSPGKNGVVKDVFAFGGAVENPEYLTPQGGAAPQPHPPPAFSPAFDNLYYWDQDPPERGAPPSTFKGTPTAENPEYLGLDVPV

p38 MAPK = conditions: LPS-induced TNF-alpha production, human monocytes; published source; read-out: Cellular IC50; cited from earlier work
DRGs = assay: anti-NGF antibody (NGF withdrawal) screen for inhibitors of axon degeneration in DRG explants; type: cell-based, mouse; conditions: inhibitor 100 μM or 10 μM added 1 hour before 25 μg/ml anti-NGF; 20 hours; actin stain
Description: The anti-NGF antibody model described above in Example 1 was used in a screen for inhibitors of neuron or axon degeneration. A library of more than 400 small molecules (Tocris Bioscience) was tested to see which, if any, modulate degeneration observed in the presence of anti-NGF antibodies.
Mouse E13.5 embryos were dissected and placed into L15 medium (Invitrogen). The spinal cord was dissected out from the embryos with DRGs attached. The spinal cords with DRGs attached were placed into L15 medium+5% goat serum (Gibco) on ice. The DRGs were removed using a tungsten needle and the remaining spinal cord was disposed of. Eight well slides were filled with N3-F12 solution (23 ml Ham's F12, 1 ml N3 supplement, and 1 ml 1 M glucose) to which was added 25 ng/ml NGF (Roche). (N3 supplement was made by dilution of N3 100× concentrate, which was made by mixing the following ingredients, in the following order: 5.0 ml Hank's buffered saline solution (HBSS; Ca, Mg free; Invitrogen), 1.0 ml bovine serum albumin (10 mg/ml in HBSS=150 μm), 2.0 ml Transferrin (T1147-1G, human, 100 mg/ml in HBSS=1.1 mM), 1.0 ml sodium selenite (S9133-1MG, 0.01 mg/ml in HBSS 58 μM), 0.4 ml putrescine dihydrochloride (P5780-5G, 80 mg/ml in HBSS=500 mM), 0.2 ml progesterone (P8783-5G, 0.125 mg/ml in absolute ethanol=400 μM), 0.02 ml corticosterone (C2505-500MG, 2 mg/ml in absolute ethanol=5.8 mM), 0.1 ml triiodothyonine, sodium salt (T6397-100MG, 0.2 mg/ml in 0.01 N NaOH=300 μM), 0.4 ml insulin (16634-250MG, bovine pancreas, 241 U/mg, 25 mg/ml in 20 mM HCl=4.4 mM), for a total volume of 10.02 ml (can be stored at −20° C.). An N3 supplement stock was made by combining the following: 10 ml Pen/Strep (100×, Gibco), 10 ml glutamine (200 mM, Gibco), 10 ml MEM vitamins (100×, Gibco), 10 ml N3 concentrate (100×, see above), for a total volume of 40 ml. The mixture was filter sterilized using a 0.22 μm filter, and 1-2 ml aliquots were stored at −20° C.).
The DRGs were sectioned into halves and placed in the center of each well of an 8-chamber slide (BD Biocoat PDL/Laminin coated glass, Becton Dickinson). The DRGs were permitted to attach to the slide at room temperature for 5-10 minutes, followed by an overnight incubation at 37° C. Inhibitors of choice were added at a concentration of 100 μM (top row) or 10 μM (bottom row) 1 hour before adding anti NGF antibodies. The anti-NGF antibodies were added to the right half of the slide (4 wells) at a concentration of 25 μg/ml. After incubation for 20 hours at 37° C., the slides were fixed with 30% sucrose/8% paraformaldehyde (PFA) by adding 250 μl of the fix solution directly to the 250 μl of culture medium. (To make the 30% sucrose/8% PFA solution, the following ingredients were added to a 600 ml beaker including a stir bar: 250 ml 16% PFA (cat#15710-S, Electron Microscopy Sciences), 50 ml 10×PBS pH 7.4, and 150 g sucrose. The solution was mixed under low heat until dissolved, and then 6-8 drops of 1 M NaOH were added to bring the pH to 7.4. The volume was then brought to 500 ml with water in a graduated cylinder. The solution was mixed well, placed in aliquots, and frozen.) The s ides were fixed for 30 minutes, followed by washing once with PBS. All cells were labeled with an actin stain (Alexa-568 conjugated phalloidin; 1:40; Invitrogen), a membrane dye (DiO; 1:200; Invitrogen), and a DNA stain (Hoechst 33258; 1:10,000; Invitrogen) in 0.1% Triton and 1% goat serum for 2 hours at room temperature. […]

CaMKK = CaMKK activity after ionomycin stimulation, transfected HeLa cells; published source; read-out: Cellular IC50; cited from earlier work
[5] = inhibitor 5 μM in axon compartment
[6] = inhibitor 5 μM in cell body compartment

N#C/C(=C\c1ccc(O)c(O)c1)C(=O)NCCCc1ccccc1 [AG555]
IC50 (ErbB kinase [1]): 5 nM | protection of cerebellar granule neurons from serum deprivation/KCl reduction ([2]; 1 μM): protect | protection of cerebellar granule neurons from serum deprivation/KCl reduction ([2]; 10 μM): protect | formation of varicosities in locally NGF-deprived axons [3]: fewer varicosities | Axon Compartment (protection of NGF-deprived axons) ([3]; inhibitor 10 μM in axon compartment): did not degenerate; also recorded: protected from local degeneration; also recorded: Yes (4) | Cell Body Compartment (protection of NGF-deprived axons) ([3]; inhibitor 10 μM in cell body compartment): failed to prevent degeneration; also recorded: No (4)

C=CC(=O)Nc1ccc2ncnc(Nc3cccc(Br)c3)c2c1 [PD168393]
IC50 (ErbB kinase [4]): 100 nM | Axon Compartment (protection of NGF-deprived axons) [3, 5]: Yes (1) | Cell Body Compartment (protection of NGF-deprived axons) [3, 6]: No (1)

COc1nccc(-c2c(-c3ccc(F)cc3)ncn2C2CCC(O)CC2)n1 (centres unmarked) [SB239063]
protection of cerebellar granule neurons from serum deprivation/KCl reduction ([2]; 5 μM): protect | IC50 (p38 MAPK): 350 nM | formation of varicosities in locally NGF-deprived axons [3]: fewer varicosities | Axon Compartment (protection of NGF-deprived axons) [3, 5]: Yes (1) | Cell Body Compartment (protection of NGF-deprived axons) [3, 6]: No (1) | Axon Compartment (protection of NGF-deprived axons) ([3]; inhibitor 30 μM in axon compartment, anti-NGF on axons 28 hours, number in parentheses not explained): Yes (3) | Axon Compartment (protection of NGF-deprived axons) ([3]; inhibitor 30 μM in axon compartment, anti-NGF on axons 28 hours, number in parentheses not explained, listed as SB239): did not degenerate; also recorded: protected from local degeneration | Cell Body Compartment (protection of NGF-deprived axons) ([3]; inhibitor 30 μM in cell body compartment, anti-NGF on axons 28 hours, number in parentheses not explained): No (3) | Cell Body Compartment (protection of NGF-deprived axons) ([3]; inhibitor 30 μM in cell body compartment, anti-NGF on axons 28 hours, number in parentheses not explained, listed as SB239): failed to prevent degeneration

O=C(O)c1ccc2c3c1cccc3c(=O)n1c3ccccc3nc21 [STO-609]
Comments (observations on compounds found to protect against neurodegeneration) (DRGs): Partial | IC50 (CaMKK): 3000 nM | protection of cerebellar granule neurons from serum deprivation/KCl reduction ([2]; 5 μM): protect | Axon Compartment (protection of NGF-deprived axons) ([3]; inhibitor 15 μM in axon compartment): Yes (1) | Cell Body Compartment (protection of NGF-deprived axons) ([3]; inhibitor 15 μM in cell body compartment): No (1)
